Results from paper PMC11678373 (Pharmaceutics, 2024).
pIC50, pKi: −log10 of the molar value. Several values for one entry are separate records, joined by “and”; a condition that tells them apart may be missing. Equal entries are not always repeated. Where two headings read alike, the source gives them in different places.

What was measured:
[1] = Pharmacokinetics of REG, M-2 and M-5 in rats after single oral REG with or without OLA; format: in vivo, male Wistar rats
Experimental: (§1) Healthy, 14-week-old adult male Wistar rats purchased from the Anima Sp. z o. o. SK and ViVARI s.c. (Warszawa, Poland) were used in the study. The animals were housed for one week in a temperature- and humidity-controlled room with a 12-h light/dark cycle and fed a standard diet with free access to fresh water.
(§2) This reduced the number of animals included in the experiment, which is consistent with the 3R concept. The same drugs (same manufacturer, same dose) were administered in the study group IREG+OLA, but from different batches than in the control groups. No other experimental conditions were changed.
(§3) The samples were centrifuged (2880 g, 10 min at 4 °C), and the plasma was stored at −80 °C until analyzed.
A Cortecs UPLC C18 column (2.1 × 50 mm, 1.6 μm) was used in combination with a VanGuard Acquity UPLC BEH C18 pre-column (2.1 × 5 mm, 3/Pk, Waters Corporation). The injection volume was 5 μL, the autosampler temperature was 4 °C, and the column temperature was 40 °C. The composition of mobile phase A was 0.1% aqueous formic acid solution (v/v), and phase B was acetonitrile/methanol and 0.1% aqueous formic acid solution in a ratio of 1:3 (v/v). The total run time was 5 min. The gradient was as follows: 0–0.5 min with 10% B; 0.5–3 min, 95% B; 3–4 min, 95% B; 4–4.1 min, 10% B; 4.1–5 min, 10% B. The flow rate was 0.4 mL/min. Multiple reaction monitoring (MRM) experiments using positive electrospray ionization (ESI) were performed to analyze the samples.
The following settings of the Xevo TQ-S micro mass spectrometer were used: source temperature 150 °C, desolvation temperature 600 °C, nitrogen gas flow 900 L/h, capillary voltage 3.6 kV.
(§4) The values of the pharmacokinetic parameters of OLA, REG, and M-2 and M-5 were determined by non-compartmental analysis with linear interpolation. PKanalix 2023R1 software (Lixoft, Antony, France) was used to calculate the elimination rate constant (kel), the absorption rate constant (ka), the half-life in the elimination phase (t1/2), the area under the concentration–time curve from zero to the last measurable concentration (AUC0–t), the area under the plasma concentration–time curve from zero to infinity (AUC0–∞), the apparent plasma drug clearance (Cl/F), and the apparent volume of distribution (Vd/F). The maximum plasma concentration (Cmax) and the time to reach the Cmax (tmax) were obtained directly from the measured values. All these parameters were presented as arithmetic mean ± standard deviation (SD) and subjected to statistical analysis.

[2] = single oral REG 20 mg/kg b.w. alone (IIREG control, n = 8), mean ± SD, adapted from previous project ref 39, cited from earlier work; for AUC0–t / AUC0–∞: metabolite in plasma
CYP2C9 = details: cited from earlier work
[3] = Long-term stability in plasma (bioanalytical validation); format: physicochemical, rat; details: plasma QC samples, −20 °C storage
Experimental: The concentrations were diluted in five replicates.
Short-term and long-term stability were tested at −20 °C storage conditions and ambient temperature at processing conditions. For the short term, three cycles of freezing and thawing within three days were applied.
All met ICH acceptance criteria.

CYP3A4 = details: cited from earlier work
CYP2C8 = details: cited from earlier work
CYP2D6 = details: cited from earlier work
P-gp vesicles = test system: P-gp vesicles; design: method as in Deng et al. 36; details: ref Deng et al. 36; cited from earlier work
[4] = Pharmacokinetics of OLA in rats after single oral OLA with or without REG; format: in vivo, male Wistar rats
Experimental: as §1, §2, §3
OLA in animal plasma samples was quantified using an Acquity 1-class PLUS ultra-high performance liquid chromatograph coupled to a Xevo TQ-S micro triple quadrupole mass spectrometer (Waters Corporation, 34 Maple Street, Milford, MA, USA). A Cortecs UPLC C18 column (2.1 × 50 mm, 1.6 µm, Waters Corporation, 34 Maple Street, Milford, MA, USA) was used for the chromatographic separation. The column temperature and injection volume were set at 40 °C and 1 µL, respectively. The mobile phase consisted of acetonitrile (eluent A) and 2 mM ammonium acetate in water (eluent B) with 0.1% 98–100% formic acid. The flow rate was kept at 0.3 mL/min. The elution gradient was as follows: 0–3 min, 5% A; 4–5 min, 95% A; 3–5 min, linear from 5% to 95% A; 5–6 min, linear from 95% to 5% A. The mass spectrometer was operated in multiple reaction monitoring mode. Two transitions were monitored for OLA and OLA-d4 as an internal standard (IS): m/z 435.1→367.1 and 435.1→281.0 (qualifier transition) for OLA and m/z 439.1→367.1 and 439.1→281.0 for IS.
as §4

[5] = OLA; single oral OLA 100 mg/kg b.w. alone (IIIOLA control, n = 8); mean ± SD; adapted from previous project ref 40; cited from earlier work
[6] = cited from earlier work
BCRP = test system: BCRP; design: method as in earlier work; details: cited from earlier work
P-gp = test system: P-gp; design: method as in earlier work; details: cited from earlier work
CYP3A4/5 = test system: CYP3A4/5; design: method as in PMID 28657402, PMID 27684210; details: cited from earlier work
CYP2B6 = details: cited from earlier work
CYP3A = test system: CYP3A; design: method as in Jin et al. 37; details: competitive inhibition; ref Jin et al. 37; cited from earlier work
P-glycoprotein = details: cited from earlier work
CYP2C19 = details: cited from earlier work
[7] = design: method as in Jin et al. 37; details: ref Jin et al. 37, cited from earlier work; for predicted AUC increase for (S)- and/or (R)-warfarin: via CYP inhibition
[8] = cited from earlier work; remark: listed apart in the source
[9] = co-administration of OLA and metformin in rats; cited from earlier work

CNC(=O)c1cc(Oc2ccc(NC(=O)Nc3ccc(Cl)c(C(F)(F)F)c3)c(F)c2)cc[n+]1[O-] [M-2, REG-N-oxide]
AUC0–t of metabolite, times higher during combined administration of OLA and REG ([1]; IREG+OLA vs. IIREG control): 8.86 fold
Cmax of metabolite, times higher during combined administration of OLA and REG ([1]; IREG+OLA vs. IIREG control): 7.22 fold
AUC0–t [2]: 9615.36 ± 2275.41 (23.7) ng × h/mL
AUC0–∞ [2]: 11,469.93 ± 2133.05 (18.6) ng × h/mL
R1 value (CYP2C9): > 1.1
stable in plasma (long-term test) [3]: ≥ 180 days
R1 value (CYP3A4): > 1.1
R1 value (CYP2C8): > 1.1
R1 value (CYP2D6): > 1.1

NC(=O)c1cc(Oc2ccc(NC(=O)Nc3ccc(Cl)c(C(F)(F)F)c3)c(F)c2)cc[n+]1[O-] [M-5, N-desmethyl-REG-N-oxide]
AUC0–t of metabolite, times higher during combined administration of OLA and REG ([1]; IREG+OLA vs. IIREG control): 17.83 fold
AUC0–∞ of metabolite, times higher during combined administration of OLA and REG ([1]; IREG+OLA vs. IIREG control): 18.82 fold
Cmax of metabolite, times higher during combined administration of OLA and REG ([1]; IREG+OLA vs. IIREG control): 16.32 fold
AUC0–t [2]: 803.19 ± 177.02 (22.0) ng × h/mL
AUC0–∞ [2]: 847.88 ± 178.97 (21.1) ng × h/mL
stable in plasma (long-term test) [3]: ≥ 180 days
R1 value (CYP2C8): > 1.1

O=C(c1cc(Cc2n[nH]c(=O)c3ccccc23)ccc1F)N1CCN(C(=O)C2CC2)CC1 [OLA, Olaparib]
inhibition of atorvastatin transport (P-gp vesicles): weak inhibitor
inhibitor class as perpetrator towards REG, from AUC ratio ([1]; rat model, AUC ratio 3.39): moderate inhibitor
increase of AUC0–t of OLA after administration of OLA with REG ([4]; IREG+OLA vs. IIIOLA control): 3.4 fold
increase of AUC0–t of OLA by REG ([4]; IREG+OLA vs. IIIOLA control): 241.7%
increase of AUC0–∞ of OLA after administration of OLA with REG ([4]; IREG+OLA vs. IIIOLA control): 3.4 fold
increase of AUC0–∞ of OLA by REG ([4]; IREG+OLA vs. IIIOLA control): 240.6%
increase of Cmax of OLA after administration of OLA with REG ([4]; IREG+OLA vs. IIIOLA control): 2.0 fold
increase of Cmax of OLA by REG ([4]; IREG+OLA vs. IIIOLA control): 104.9%
t0.5 ([4]; OLA, single oral OLA 100 mg/kg b.w. + REG 20 mg/kg b.w. (IREG+OLA, n = 8), mean ± SD): 3.01 ± 0.86 (28.6) h
AUC0–∞ ratio of OLA (study group/control group) ([4]; rats, OLA victim, REG perpetrator): 3.39 and 3.41
stable in plasma (long-term test) [3]: at least 181 days
AUC0–t [5]: 28.28 ± 28.16 (99.6) µg × h/mL
AUC0–∞ [5]: 28.58 ± 28.31 (99.1) µg × h/mL
Cl/F [5]: 7.84 ± 15.21 (193.9) L/h
Cmax [5]: 8.72 ± 6.80 (78.0) µg/mL
t0.5 [5]: 4.79 ± 6.06 (126.5) h
tmax [5]: 1.16 ± 0.92 (78.9) h
concentration in the gastrointestinal tract ([6]; from a 400 mg dose): 3683 µM
pIC50 (BCRP): < 5.00
pIC50 (P-gp): < 5.00
time-dependent CYP inhibition (CYP3A4/5; OLA 10 μM): little effect
time-dependent CYP inhibition (CYP3A4/5; OLA 2–200 μM): time-dependent CYP3A4/5 inhibitor
pIC50 (CYP3A4/5; reversible inhibition, OLA 17–500 μM): 3.92

CNC(=O)c1cc(Oc2ccc(NC(=O)Nc3ccc(Cl)c(C(F)(F)F)c3)c(F)c2)ccn1 [REG, regorafenib]
increase of AUC0–∞ of REG after OLA administration ([1]; IREG+OLA vs. IIREG control): 3.38 fold
increase of t0.5 of REG after OLA administration ([1]; IREG+OLA vs. IIREG control): 1.82 fold
increase of tmax of REG after OLA administration ([1]; IREG+OLA vs. IIREG control): 2.66 fold
reduction of kel of REG in the study group ([1]; IREG+OLA vs. IIREG control): 1.77 fold
t0.5 ([1]; REG, single oral REG 20 mg/kg b.w. + OLA 100 mg/kg b.w. (IREG+OLA, n = 8), mean ± SD): 11.65 ± 3.70 (31.7) h
Vd/F ([2]; REG): 2062.53 ± 615.85 (29.7) mL
tmax ([2]; REG): 5.8 ± 2.1 (36.9) h
R1 value (CYP2C9): > 1.1
stable in plasma (long-term test) [3]: ≥ 180 days
R1 value (CYP2B6): > 1.1
pKi (CYP3A): 4.68
pIC50 (P-glycoprotein; in vitro, read-out: IC50): ~5.70
pIC50 (P-glycoprotein; read-out: IC50 for P-gp inhibition): 5.66
estimated duodenal concentration ([6]; 160 mg REG dose, assumed duodenal volume of 250 mL): 1.3 mM
R1 value (CYP3A4): > 1.1
R1 value (CYP2C19): > 1.1
predicted effect on the AUCs of apixaban and rivaroxaban [7]: little or no effect
R1 value (CYP2C8): > 1.1

CNC(=O)c1ccccc1Sc1ccc2c(/C=C/c3ccccn3)n[nH]c2c1 [axitinib]
predicted AUC increase for (S)- and/or (R)-warfarin [7]: ≤ 1.2 fold

OC(Cn1cncn1)(Cn1cncn1)c1ccc(F)cc1F [fluconazole]
increase in AUC of OLA ([8]; concomitant fluconazole): 121%
increase in Cmax of OLA ([8]; concomitant fluconazole): 14%

CCC(C)n1ncn(-c2ccc(N3CCN(c4ccc(OCC5COC(Cn6cncn6)(c6ccc(Cl)cc6Cl)O5)cc4)CC3)cc2)c1=O (stereo not drawn) [itraconazole]
increase in AUC of OLA ([8]; concomitant itraconazole): 170%
increase in Cmax of OLA ([8]; concomitant itraconazole): 42%

Cc1ccc(NC(=O)c2ccc(CN3CCN(C)CC3)cc2)cc1Nc1nc(-c2cccnc2)cs1 [masitinib]
pKi (CYP3A): 5.89

CN(C)C(=N)N=C(N)N [metformin]
increase in metformin AUC [9]: 2.6 fold
increase in metformin Cmax [9]: 2.8 fold

COC(=O)c1ccc2c(c1)NC(=O)/C2=C(\Nc1ccc(N(C)C(=O)CN2CCN(C)CC2)cc1)c1ccccc1 [nintedanib]
predicted AUC increase for (S)- and/or (R)-warfarin [7]: ≤ 1.2 fold

Cc1cc(Nc2cc(N3CCN(C)CC3)nc(Sc3ccc(NC(=O)C4CC4)cc3)n2)[nH]n1 [tozasertib]
predicted AUC increase for (S)- and/or (R)-warfarin [7]: ≤ 1.2 fold

CC(=O)Nc1cccc(-n2c(=O)n(C3CC3)c(=O)c3c(Nc4ccc(I)cc4F)n(C)c(=O)c(C)c32)c1 [trametinib]
predicted AUC increase for (S)- and/or (R)-warfarin [7]: ≤ 1.2 fold

Clc1ccc(Nc2nnc(Cc3ccncc3)c3ccccc23)cc1 [vatalanib]
pKi (CYP3A): 6.70
